Measurements reported in PubChem BioAssay (NCI).
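Cultured in 96-well plates, cells were exposed to test compound for 48 hours across five concentrations. At the GI50, growth is halved. TGI: concentration producing complete growth inhibition.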

Legend:
Experiment in all cases: DTP human tumour cell line panel, 48 h
M14 melanoma = system: M14 melanoma
DU-145 prostate = system: DU-145 prostate
SR leukemia = system: SR leukemia
PC-3 prostate = system: PC-3 prostate
T-47D breast = system: T-47D breast
MDA-MB-231 breast = system: MDA-MB-231 breast
LOX IMVI melanoma = system: LOX IMVI melanoma
KM20L2 colon = system: KM20L2 colon
M19-MEL melanoma = system: M19-MEL melanoma
XF 498 CNS = system: XF 498 CNS
SNB-78 CNS = system: SNB-78 CNS
DMS 273 small cell lung = system: DMS 273 small cell lung
DLD-1 colon = system: DLD-1 colon

N=C(N)c1ccc(-c2ccc(-c3ccccc3)s2)cc1 gave a GI50 (M14 melanoma) of 1.68 µM, a TGI (M14 melanoma) of 3.51 µM and a GI50 (DU-145 prostate) of 1.75 µM. For the same compound, the TGI (DU-145 prostate) was 3.17 µM, the GI50 (SR leukemia) was 0.668 µM and the TGI (SR leukemia) was 4.13 µM. It also gave a GI50 (PC-3 prostate) of 1.76 µM, a TGI (PC-3 prostate) of 3.47 µM and a GI50 (T-47D breast) of 1.83 µM. For the same compound, the TGI (T-47D breast) was 4.79 µM, the GI50 (MDA-MB-231 breast) was 1.43 µM and the TGI (MDA-MB-231 breast) was 2.87 µM.

O=[N+]([O-])c1ccccc1NC1c2ccccc2Oc2ccccc21 gave a GI50 (M14 melanoma) of 3.53 µM, a TGI (M14 melanoma) of over 100 µM and a GI50 (DU-145 prostate) of 43 µM. For the same compound, the TGI (DU-145 prostate) was over 100 µM, the GI50 (SR leukemia) was 3.32 µM and the TGI (SR leukemia) was over 100 µM. The GI50 (PC-3 prostate) was 5.88 µM, the TGI (PC-3 prostate) was over 100 µM and the GI50 (LOX IMVI melanoma) was 5.52 µM. For the same compound, the TGI (LOX IMVI melanoma) was over 100 µM, the GI50 (T-47D breast) was 27.8 µM and the TGI (T-47D breast) was over 100 µM. The GI50 (MDA-MB-231 breast) was 3.95 µM and the TGI (MDA-MB-231 breast) was 66.6 µM.

Work on C=C1C(=O)OC2/C=C(/C)C3CC(O)C(C)(CC(OC(=O)/C(C)=C/C)C12)O3 (stereo unspecified) yielded a TGI (M14 melanoma) of 9.08 µM, a TGI (KM20L2 colon) of 13.1 µM and a TGI (SR leukemia) of over 24 µM. For the same compound, the TGI (M19-MEL melanoma) was 9.57 µM, the TGI (XF 498 CNS) was 17.2 µM and the TGI (SNB-78 CNS) was 7.7 µM. For the same compound, the TGI (DMS 273 small cell lung) was 8.8 µM, the TGI (DLD-1 colon) was 3.12 µM and the TGI (LOX IMVI melanoma) was 4.4 µM.

With O=C1C=CC2=[N+]([O-])C(c3ccccc3)(c3ccccc3)C(=Nc3ccccc3)C2=C1 the TGI (M14 melanoma) was 3.76 µM, the TGI (KM20L2 colon) was 5.22 µM and the TGI (SR leukemia) was 0.763 µM. It also gave a TGI (M19-MEL melanoma) of 3.36 µM, a TGI (XF 498 CNS) of 2.71 µM and a TGI (SNB-78 CNS) of 15.6 µM. For the same compound, the TGI (DLD-1 colon) was 3.14 µM and the TGI (LOX IMVI melanoma) was 3.74 µM.

For COc1cc(/C=C/c2cc(/C=C/c3ccc(O)c(OC)c3)nc(N)n2)ccc1O, the GI50 (DU-145 prostate) was 2.4 µM, the TGI (DU-145 prostate) was 6.31 µM and the GI50 (SR leukemia) was 0.72 µM. It also gave a TGI (SR leukemia) of 3.58 µM, a GI50 (PC-3 prostate) of 1.48 µM and a TGI (PC-3 prostate) of 5.57 µM. The GI50 (T-47D breast) was 2.83 µM, the TGI (T-47D breast) was 9.55 µM and the GI50 (MDA-MB-231 breast) was 1.45 µM. For the same compound, the TGI (MDA-MB-231 breast) was 4.08 µM.

In the case of CCNc1nnc(-c2nsc3ccccc23)s1, the TGI (M14 melanoma) is reported as over 100 µM, the TGI (KM20L2 colon) is reported as over 100 µM and the TGI (SR leukemia) is reported as over 100 µM. The TGI (M19-MEL melanoma) was over 100 µM, the TGI (SNB-78 CNS) was over 100 µM and the TGI (DMS 273 small cell lung) was over 100 µM. For the same compound, the TGI (LOX IMVI melanoma) was over 100 µM.

Work on Cc1ccc([N+](=O)[O-])cc1S(=O)(=O)Nc1ccc(C2=NNC(c3ccccc3O)C2)cc1 (stereo unspecified) yielded a TGI (M14 melanoma) of 51.6 µM, a TGI (DU-145 prostate) of over 100 µM and a TGI (SR leukemia) of 87.7 µM. The TGI (PC-3 prostate) was over 100 µM, the TGI (LOX IMVI melanoma) was over 100 µM and the TGI (T-47D breast) was 72.4 µM. It also gave a TGI (MDA-MB-231 breast) of over 100 µM.

With CN1CCCCC(C#N)(c2ccccc2)CC1 (stereo unspecified) the TGI (M14 melanoma) was over 100 µM, the TGI (DU-145 prostate) was over 100 µM and the TGI (SR leukemia) was over 100 µM. It also gave a TGI (PC-3 prostate) of over 100 µM and a TGI (T-47D breast) of over 100 µM.

For C=C1C(=O)C[C@@]23CCC[C@@]12CC(OCOC)C3 (stereo partly specified), the TGI (KM20L2 colon) was 9.02 µM, the TGI (M19-MEL melanoma) was 12.5 µM and the TGI (XF 498 CNS) was 8.33 µM. It also gave a TGI (SNB-78 CNS) of 22.5 µM, a TGI (DMS 273 small cell lung) of 6.65 µM and a TGI (DLD-1 colon) of 4.81 µM. For the same compound, the TGI (LOX IMVI melanoma) was 3.87 µM.

Nc1nc(Cl)cc(OCC2(CO)CC(OCc3ccccc3)C2)n1 (stereo unspecified) gave a GI50 (M14 melanoma) of 95 µM, a GI50 (DU-145 prostate) of 66.3 µM and a GI50 (SR leukemia) of 40.6 µM. The GI50 (LOX IMVI melanoma) was 45.6 µM, the GI50 (T-47D breast) was 18.9 µM and the TGI (T-47D breast) was 92.3 µM. It also gave a GI50 (MDA-MB-231 breast) of 26.2 µM.

In the case of CC(C)CCC[C@@H](C)C1CCC2[C@@H]3CC=C4C[C@@H](C(=O)NCC[N+](C)(C)CCCS(=O)(=O)[O-])CC[C@]4(C)C3CC[C@@]21C (stereo partly specified), the TGI (M14 melanoma) is reported as 31.6 µM, the TGI (KM20L2 colon) is reported as 30.4 µM and the TGI (M19-MEL melanoma) is reported as 31.1 µM. It also gave a TGI (SNB-78 CNS) of 37.4 µM, a TGI (DMS 273 small cell lung) of 31.4 µM and a TGI (DLD-1 colon) of 49.7 µM. The TGI (LOX IMVI melanoma) was 25.2 µM.

In the case of COC(=O)c1cccc(N[C@@H]2c3cc4c(cc3C(c3cc(OC)c(O)c(OC)c3)[C@H]3C(=O)OCC32)OCO4)c1 (stereo partly specified), the TGI (KM20L2 colon) is reported as over 32.7 µM, the TGI (M19-MEL melanoma) is reported as over 100 µM and the TGI (XF 498 CNS) is reported as over 27.4 µM. It also gave a TGI (SNB-78 CNS) of 98.7 µM, a TGI (DMS 273 small cell lung) of 3.35 µM and a TGI (DLD-1 colon) of 15 µM. It also gave a TGI (LOX IMVI melanoma) of 11.3 µM.

CC(=O)Oc1ccc2c(c1)oc1c3ccc(OC(C)=O)cc3n(C)c(=O)c21 gave a TGI (M14 melanoma) of over 100 µM, a TGI (DU-145 prostate) of over 100 µM and a TGI (SR leukemia) of over 100 µM. For the same compound, the TGI (PC-3 prostate) was over 100 µM, the TGI (T-47D breast) was over 100 µM and the TGI (MDA-MB-231 breast) was over 100 µM.

CCN(CC)CCCNc1ncc(C)c2[nH]c3ccncc3c12 was tested, and the TGI (KM20L2 colon) was 31 µM, the TGI (M19-MEL melanoma) was 28 µM and the TGI (XF 498 CNS) was 24 µM. For the same compound, the TGI (SNB-78 CNS) was over 100 µM, the TGI (DMS 273 small cell lung) was 25.8 µM and the TGI (DLD-1 colon) was over 79.9 µM. For the same compound, the TGI (LOX IMVI melanoma) was 14.9 µM.

In the case of Cc1cc(C)c2c(c1)CC1(Cc3c(C)ccc(C)c3C1=O)C2=O (stereo unspecified), the TGI (M14 melanoma) is reported as over 100 µM, the TGI (DU-145 prostate) is reported as over 100 µM and the TGI (SR leukemia) is reported as over 100 µM. For the same compound, the TGI (PC-3 prostate) was over 100 µM, the TGI (T-47D breast) was over 100 µM and the TGI (MDA-MB-231 breast) was over 100 µM.

S=P1(N2CCCCC2)Oc2ccc3ccccc3c2-c2c(ccc3ccccc23)O1 gave a TGI (KM20L2 colon) of over 100 µM, a TGI (M19-MEL melanoma) of over 100 µM and a TGI (XF 498 CNS) of over 100 µM. It also gave a TGI (SNB-78 CNS) of over 100 µM, a TGI (DMS 273 small cell lung) of over 100 µM and a TGI (DLD-1 colon) of over 100 µM. The TGI (LOX IMVI melanoma) was over 100 µM.
